molecular target: T1, EGFR (Homo sapiens, UniProt P00533); assay: Biochemical EGFR Assay; set-up: concentration or dose not given beside the values
T1 construct: endogenous in cells; host or cells: A431 cells (lysate, captured with SUMO1 anti-EGFR antibody)
Experimental: This assay measures the in vitro kinase activity of EGFR using ELISA.
1. Corning 96-well Elisa plates (Corning Catalog No. 25805-96).
2. SUMO1 monoclonal anti-EGFR antibody (Biochemistry Lab, SUGEN, Inc.).
3. PBS (Dulbecco's Phosphate-Buffered Saline, Gibco Catalog No. 450-1300EB).
6. A431 cell lysate (Screening Lab, SUGEN, Inc.)
9. Adenosine-5′-triphosphate (ATP, from Equine muscle, Sigma Cat. No. A-5394).
Prepare a 1.0 mM solution in dH2O. This reagent should be made up immediately prior to use and kept on ice.
Prepare a 1.0 M stock solution in dH2O.
11. ATP/MnCl2 phosphorylation mix
This reagent should be prepared immediately before use and kept on ice
12. NUNC 96-well V bottom polypropylene plates (Applied Scientific Cat. No. AS-72092).
13. Ethylenediaminetetraacetic acid (EDTA)
Prepare 200 mM working solution in dH2O. Adjust to pH 8.0 with 10 N NaOH.
14. Rabbit polyclonal anti-phosphotyrosine serum (Biochemistry Lab, SUGEN, Inc.)
15. Goat anti-rabbit IgG peroxidase conjugate (Biosource Cat. No. ALI0404)
16. ABTS (2,2′-azino-bis(3-ethylbenzthiazoline-6-sulfonic acid), Sigma Cat. No. A-1888).
Mix first two ingredients in about 900 ml dH2O, adjust pH to 4.0 with phosphoric acid. Add ABTS, cover, let sit about 0.5 hr., filter. The solution should be kept in the dark at 4° C. until ready to use.
17. Hydrogen peroxide 30% solution (Fisher Cat. No. H325)
Mix 15 ml ABTS solution and 2.0 μl H2O2. Prepare 5 minutes before use.
1. Coat Corning 96 well ELISA plates with 0.5 μg SUMO1 in 100 μl PBS per well, store overnight at 4° C.
2. Remove unbound SUMO1 from wells by inverting plate to remove liquid. Wash 1× with dH2O. Pat the plate on a paper towel to remove excess liquid.
3. Add 150 μl of Blocking Buffer to each well. Incubate for 30 min. at room temperature with shaking.
4. Wash plate 3× with deionized water, then once with TBST. Pat plate on a paper towel to remove excess liquid and bubbles.
5. Dilute lysate in PBS (7 μg lysate/100 μl PBS)
6. Add 100 μl of diluted lysate to each well. Shake at room temperature for 60 min.
7. Wash plates as described in 4, above.
8. Add 120 μl TBS to ELISA plate containing captured EGFR.
9. Dilute test compound 1:10 in TBS in 96-well polypropylene plates (ie. 10 μl compound+90 μl TBS).
10. Add 13.5 μl diluted test compound to ELISA plate.
11. Incubate for 30 minutes while shaking at room temperature.
13. After 5 minutes, stop reaction by adding 16.5 μl of 200 mM EDTA (pH 8.0) to each well, shaking continuously. After the EDTA has been added, shake for 1 min.
14. Wash 4× with deionized water, twice with TBST.
15. Add 100 μl anti-phosphotyrosine (1:3000 dilution in TBST) per well. Incubate 30-45 min. at room temperature, with shaking.
16. Wash as described in 4, above.
17. Add 100 μl Biosource Goat anti-rabbit IgG peroxidase conjugate (1:2000 dilution in TBST) to each well. Incubate 30 min. at room temperature, with shaking.
18. Wash as described in 4, above.
19. Add 100 μl of ABTS/H2O2 solution to each well.
20. Incubate 5 to 10 minutes with shaking. Remove any bubbles.
21. If necessary stop reaction with the addition of 100 μl 0.2 M HCl per well.
22. Read assay on Dynatech MR7000 ELISA reader. Test Filter: 410 nM Reference Filter: 630 nM

T1 sequence (P00533 25-1210): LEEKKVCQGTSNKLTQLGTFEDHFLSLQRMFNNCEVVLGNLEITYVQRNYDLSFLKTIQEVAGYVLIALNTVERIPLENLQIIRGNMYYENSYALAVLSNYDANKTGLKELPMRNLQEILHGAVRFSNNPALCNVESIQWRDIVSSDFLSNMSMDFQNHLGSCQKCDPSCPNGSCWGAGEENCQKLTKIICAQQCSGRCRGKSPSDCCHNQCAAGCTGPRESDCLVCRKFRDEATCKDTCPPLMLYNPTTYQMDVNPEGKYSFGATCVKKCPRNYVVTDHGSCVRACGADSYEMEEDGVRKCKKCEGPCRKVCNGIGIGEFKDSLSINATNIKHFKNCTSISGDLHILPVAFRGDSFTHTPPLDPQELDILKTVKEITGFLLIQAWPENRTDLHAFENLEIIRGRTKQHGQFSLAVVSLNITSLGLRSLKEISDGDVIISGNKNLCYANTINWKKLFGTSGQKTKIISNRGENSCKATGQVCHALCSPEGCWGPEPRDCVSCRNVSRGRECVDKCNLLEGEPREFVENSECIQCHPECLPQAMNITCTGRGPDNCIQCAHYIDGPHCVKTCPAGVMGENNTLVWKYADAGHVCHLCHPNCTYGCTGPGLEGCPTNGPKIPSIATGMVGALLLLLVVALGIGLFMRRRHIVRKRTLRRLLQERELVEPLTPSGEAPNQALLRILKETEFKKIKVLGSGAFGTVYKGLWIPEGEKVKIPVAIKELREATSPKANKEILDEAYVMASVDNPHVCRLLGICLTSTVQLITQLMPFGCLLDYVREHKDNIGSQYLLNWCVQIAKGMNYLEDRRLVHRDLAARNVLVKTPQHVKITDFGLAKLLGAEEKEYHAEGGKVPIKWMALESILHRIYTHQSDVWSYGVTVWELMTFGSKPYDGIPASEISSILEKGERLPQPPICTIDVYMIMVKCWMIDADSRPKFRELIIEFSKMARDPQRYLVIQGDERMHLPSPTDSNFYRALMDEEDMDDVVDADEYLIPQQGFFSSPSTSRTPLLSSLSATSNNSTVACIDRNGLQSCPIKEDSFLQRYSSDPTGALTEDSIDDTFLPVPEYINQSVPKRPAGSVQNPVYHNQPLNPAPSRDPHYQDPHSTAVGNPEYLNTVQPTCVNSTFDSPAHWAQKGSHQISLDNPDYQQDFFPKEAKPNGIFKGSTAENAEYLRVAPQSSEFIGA

Row | Structure (SMILES) | Biochem EGFR % Inhibition (P.167)
1 | Cc1c(Br)cc(Br)c2c1C(=CC(c1cccs1)C(F)(F)F)C(=O)N2 (centres unmarked) [10732/H02] | 13.0%
2 | COc1c(C(C)C)cc(C=C2C(=O)Nc3c(Br)cc(Br)c(C)c32)cc1C(C)C [10732/H03] | 1.4%
3 | Cc1c(Br)cc(Br)c2c1C(=Cc1cc(C(C)C)c(Oc3ccccc3)c(C(C)C)c1)C(=O)N2 [10732/H04] | −0.7%
4 | COc1ccc(C=C2C(=O)Nc3c(Br)cc(Br)c(C)c32)cc1C(C)(C)C [10732/H05] | −2.9%
5 | Cc1c(Br)cc(Br)c2c1C(=Cc1ccc(OCc3ccccc3)c(C(C)(C)C)c1)C(=O)N2 [10732/H06] | −6.9%
6 | COc1c(Br)cc(C=C2C(=O)Nc3c(Br)cc(Br)c(C)c32)cc1C(C)(C)C [10732/H07] | −15.3%
7 | Cc1c(Br)cc(Br)c2c1C(=Cc1cc(Br)c(OCc3ccccc3)c(C(C)(C)C)c1)C(=O)N2 [10732/H08] | −14.0%
8 | COc1c(Cl)cc(C=C2C(=O)Nc3c(Br)cc(Br)c(C)c32)cc1C(C)(C)C [10732/H09] | −7.4%
9 | Cc1c(Br)cc(Br)c2c1C(=Cc1cc(Cl)c(OCc3ccccc3)c(C(C)(C)C)c1)C(=O)N2 [10732/H10] | −21.3%
10 | COc1c(I)cc(C=C2C(=O)Nc3c(Br)cc(Br)c(C)c32)cc1C(C)(C)C [10732/H11] | −15.1%
11 | Cc1c(Br)cc(Br)c2c1C(=Cc1cc(I)c(OCc3ccccc3)c(C(C)(C)C)c1)C(=O)N2 [10733/H02] | 3.2%
12 | COc1c([N+](=O)[O-])cc(C=C2C(=O)Nc3c(Br)cc(Br)c(C)c32)cc1C(C)(C)C [10733/H03] | −16.5%
13 | COc1c(C(C)(C)C)cc(C=C2C(=O)Nc3c(Br)cc(Br)c(C)c32)cc1C(C)(C)C [10733/H04] | −24.0%
14 | Cc1c(Br)cc(Br)c2c1C(=Cc1cc(C(C)(C)C)c(OCc3ccccc3)c(C(C)(C)C)c1)C(=O)N2 [10733/H05] | 15.9%
15 | COc1c(C)cc(C=C2C(=O)Nc3c(Br)cc(Br)c(C)c32)cc1C [10733/H06] | −10.5%
16 | Cc1cc(C=C2C(=O)Nc3c(Br)cc(Br)c(C)c32)cc(C)c1OCc1ccccc1 [10733/H07] | −6.2%
17 | COc1cc(Br)cc(C=C2C(=O)Nc3c(Br)cc(Br)c(C)c32)c1O [10733/H08] | 0.3%
18 | Cc1c(Br)cc(Br)c2c1C(=Cc1cc(Br)ccc1O)C(=O)N2 [10733/H09] | −3.1%
19 | Cc1c(Br)cc(Br)c2c1C(=Cc1cc([N+](=O)[O-])ccc1O)C(=O)N2 [10733/H10] | −3.1%
20 | COc1c(O)ccc(C=C2C(=O)Nc3c(Br)cc(Br)c(C)c32)c1[N+](=O)[O-] [10733/H11] | 7.0%
